Measurements: patent US20260335277A1, “CHLOROTONIL DERIVATIVES” (priority 2023, published 2026)
Values after ≈ are worked out from the molar mass of the structure shown.

What was measured:
[1] = test system: chloroquine-resistant P. falciparum; assay: Drug sensitivity assay, asexual stages (HRP2 ELISA, 72 h); assay type: cell-based; settings: Plasmodium falciparum; chloroquine-resistant P. falciparum Dd2; mean ± SD
Method: (§1) Drug sensitivity assays of asexual plasmodium stages were carried out as described before (doi: 10.1128/AAC.49.8.3575-3577.2005). Briefly, the drugs were distributed in a 3-fold serial dilution in 96-well plates. Synchronized ring-stage parasites were diluted to a parasitemia of 0.05% with O Rh+ erythrocytes incomplete culture medium and seeded at a hematocrit of 1.5% in a total volume of 225 μL per well. Thereafter, the plates were incubated at 5% CO2, 5% O2, at 37° C. for 72 h, then they were frozen and thawed three times. The growth inhibition of P. falciparum was measured through an enzyme-linked immunosorbent assay (ELISA) for histidine-rich protein 2 (HRP2) using a microplate reader.

[2] = test system: drug-sensitive P. falciparum 3D7; assay: as above; assay type: cell-based; settings: Plasmodium falciparum, mean ± SD, read-out: chloroquine IC50
Method: as §1

[3] = test system: clinical isolates from Gabon; settings: read-out: median IC50; cited from earlier work
Plasmodium falciparum = settings: cited from earlier work
[4] = test system: mature gametocytes (stages IV and V); assay: Activity against mature gametocytes (stage IV-V), bioluminescence assay; assay type: cell-based, P. falciparum; settings: Plasmodium falciparum
Method: Activity against gametocytes was determined using an in vitro bioluminescence assay as described previously (doi.org/10.1371/journal.pone.0035019).

P. falciparum = P. falciparum infection models, per oral; assay type: in vivo; settings: 50 mg/kg per oral
Source text: (§2) In addition, standard in vitro ADME parameters cannot be uniquely determined since chlorotonil A concentrations in these assays were always below the limit of detection. […] Both compounds (chlorotonil A and B1-Epo2) could be administered at low doses intravenously, however, only when dissolved in a vehicle which is not suitable for further development as part of preclinic studies as it contained high amounts of organic solvents (10 vol. % ethanol, 5 vol. % DMSO).

[5] = test system: S. aureus N315 (methicillin-resistant, MRSA); assay: MIC testing (broth microdilution, EUCAST); assay type: cell-based; settings: Staphylococcus aureus, MRSA
Method: (§3) Minimal inhibitory concentration (MIC) of the compounds in the present invention was determined using broth microdilution performed according to EUCAST guidelines (ISO20776-1:2019). S. aureus ATCC29213 and E. faecalis ATCC29212 served as quality control strains.

S. epidermidis DSM-28765 = assay: MIC testing (broth microdilution, EUCAST); assay type: cell-based; settings: Staphylococcus epidermidis, DSM28765, S. epidermidis DSM-28765; read-out: MIC S. epiderm.
Method: as §3

[6] = test system: chloroquine-resistant laboratory strains of Plasmodium falciparum; settings: cited from earlier work
Aqueous solubility = assay type: physicochemical
Method: (§4) Complementing the toxicity profiling, ADME properties of the lead dehalogenil were determined. This had not been possible for the first generation frontrunner ChB1-Epo2 or the natural product ChA because of their poor limit of detection. […] Across species (mouse, rat, human), metabolic stability is high while plasma stability is moderate. Besides, no hemolysis and no inhibition of the metabolically important enzyme CYP3A4 was observed by both dehalogenil and ChA. Plasma protein binding (PPB) is >99.4% in all species.

[7] = test system: chloroquine-sensitive laboratory strains of Plasmodium falciparum; settings: cited from earlier work
Hemolysis = assay type: cell-based
Method: as §4

zebrafish larvae = assay: Toxicity in zebrafish larvae (MTC / IC50); assay type: in vivo
Method: For toxicity screening, zebrafish larvae were exposed three days post fertilization and monitored for 48 h until five days post fertilization. All malformations and pathophysiological phenotypes were noted and used to determine the inhibitory concentration (IC50) of the respective derivative against zebrafish larvae. The selectivity index (SI) was then calculated using the IC50 and the MIC of either S. aureus or P. falciparum 3D7.

parasitemia = settings: mice, 4 day suppression test, 36-110 mg/kg oral, pilot experiments; cited from earlier work
[8] = test system: mature gametocytes (stages IV and V); settings: stage IV-V gametocytes; cited from earlier work
[9] = Toxicity in mouse models after multiple PO dosing; assay type: in vivo; settings: multiple PO dosing at 100 mg/kg
Source text: as §2

CYP3A4 = assay: Inhibition of CYP3A4; assay type: in vitro ADME
Method: as §4

Structure (SMILES) | IC50 [1] [nM] | IC50 [2] [nM] | IC50 [3] [nM] | development of resistant parasites in vitro by drug pressure (Plasmodium falciparum) | IC50 [4] [nM] | efficacy in P. falciparum infection model (cure) (P. falciparum) | MIC [5] [µg/mL] | MIC (S. epidermidis DSM-28765) [µg/mL] | IC50 [6] [nM] | water solubility (Aqueous solubility) | IC50 [7] [nM] | hemolysis (Hemolysis) | toxicity effects in zebrafish larvae models (zebrafish larvae; comparative studies) | IC50 in zebrafish larvae (zebrafish larvae; exposed 3 days post fertilization, monitored 48 h) [µM] | reduced parasitemia (parasitemia) [%] | gametocytocidal activity compared with other tested compounds [8] | toxicity in mouse models [9] | inhibition of CYP3A4 (CYP3A4)
CCN(CC)CCCC(C)Nc1ccnc2cc(Cl)ccc12 (stereo not drawn) [Chloroquine] | 226 ± 76 | 7.4 |  |  |  |  |  |  |  |  |  |  |  |  |  |  |  | 
CC1=C[C@@H](C)[C@H]2[C@@H]3C(=O)C(Cl)(Cl)C(=O)[C@H](C)C(=O)O[C@@H](C)/C=C/C=C\[C@@H](C)[C@@H]3C=C[C@@H]2C1 [ChA, reference compound] |  |  | 15.2 | not possible to develop resistant parasites in vitro | 9.5 ± 3 | full cure | 0.05 (≈ 0.104 µM) | 0.05 (≈ 0.104 µM) | 18 | poor water solubility | 9 | no hemolysis | cardiotoxic, hepatotoxic and developmental toxicity effects | 1.09 | > 90 | superior activity to all other tested compounds in this assay, besides epoxomicin | general adverse effects, and cardio- and hepatotoxicity | no inhibition
